Consider 12 compounds from patent US20260184710A1, “CASITAS B-LINEAGE LYMPHOMA PROTOONCOGENE B (CBL-B) DEGRADING COMPOUNDS AND ASSOCIATED METHODS OF USE” (Arvinas Operations, Inc., priority 2022, published 2026).

The assay concerns the target T1, Cbl-b (Homo sapiens, UniProt Q13191).
T1 construct: Cbl-b-HiBit KI Jurkat Cells were purchased from Promega; host or cells: Cbl-b-HiBiT knock-in Jurkat cells
Briefly: Cbl-b Degradation Method B (Nano-Glo HiBiT lytic detection). The following applies: Cbl-b-HiBit KI Jurkat Cells, incubated at least 6-24 hours; for DC50: half maximal degradation, read-out: Cbl-b Degredation Method B IC50; for Dmax: maximum degradation observed, read-out: Cbl-b Degredation Method B Dmax (%). In kind it is cell-based. In short, it runs like this: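 An 11-point, 3-fold compound dilution was applied for 6-24 hours to Jurkat cells carrying HiBiT-tagged endogenous Cbl-b. Lytic HiBiT luminescence quantified residual protein. Outputs are DC50 and Dmax relative to DMSO control.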

Molecules are shown by their SMILES.

T1 sequence (Q13191 whole entry): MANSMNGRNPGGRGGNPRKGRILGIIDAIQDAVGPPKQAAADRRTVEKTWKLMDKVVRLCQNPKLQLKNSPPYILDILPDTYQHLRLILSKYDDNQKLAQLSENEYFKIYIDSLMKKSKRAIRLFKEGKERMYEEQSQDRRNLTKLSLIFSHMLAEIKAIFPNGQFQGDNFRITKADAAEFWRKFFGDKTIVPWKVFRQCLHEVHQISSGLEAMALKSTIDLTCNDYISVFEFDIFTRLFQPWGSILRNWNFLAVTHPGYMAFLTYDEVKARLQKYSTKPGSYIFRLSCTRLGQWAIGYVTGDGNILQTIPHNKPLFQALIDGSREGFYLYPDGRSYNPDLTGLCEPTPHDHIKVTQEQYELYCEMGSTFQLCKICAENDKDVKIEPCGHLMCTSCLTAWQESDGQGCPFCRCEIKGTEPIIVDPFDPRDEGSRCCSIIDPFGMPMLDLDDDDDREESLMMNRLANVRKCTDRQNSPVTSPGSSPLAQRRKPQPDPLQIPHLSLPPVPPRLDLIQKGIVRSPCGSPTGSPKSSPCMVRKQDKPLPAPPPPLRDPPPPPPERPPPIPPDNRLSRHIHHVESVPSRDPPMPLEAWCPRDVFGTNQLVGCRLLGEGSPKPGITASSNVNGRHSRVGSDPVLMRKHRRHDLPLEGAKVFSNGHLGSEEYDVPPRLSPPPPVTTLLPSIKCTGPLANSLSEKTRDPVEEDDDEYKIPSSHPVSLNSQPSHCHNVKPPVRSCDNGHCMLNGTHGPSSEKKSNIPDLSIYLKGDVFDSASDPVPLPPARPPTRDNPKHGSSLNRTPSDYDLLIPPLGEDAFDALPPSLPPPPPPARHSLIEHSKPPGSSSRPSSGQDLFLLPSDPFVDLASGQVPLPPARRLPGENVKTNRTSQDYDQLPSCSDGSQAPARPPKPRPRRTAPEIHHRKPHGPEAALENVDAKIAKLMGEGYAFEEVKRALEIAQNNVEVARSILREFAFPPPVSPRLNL

Consider `CC(C)n1c(=O)n(C2CCC(=O)NC2=O)c2ccc(N3CCC(O[C@H]4CC[C@@H](CN5CCN(C[C@H]6CCCN(Cc7cc8c(c(C(F)(F)F)c7)CN(c7cccc(C9(Cc%10nncn%10C)COC9)c7)C8=O)C6)C(C)(C)C5)CC4)CC3)cc21` (stereo partly drawn) [Example 263, 3-[2-oxo-3-(propan-2-yl)-5-(4-{[(1r,4r)-4-[(3,3-dimethyl-4-{[(3S)-1-{[2-(3-{3-[(4-methyl-4H-1,2,4-triazol-3-yl)methyl]oxetan-3-yl}phenyl)-3-oxo-7-(trifluoromethyl)-2,3-dihydro-1H-isoindol-5-yl]methyl}piperidin-3-yl]methyl}piperazin-1-yl)methyl]cyclohexyl]oxy}piperidin-1-yl)-2,3-dihydro-1H-1,3-benzodiazol-1-yl]piperidine-2,6-dione], for which the DC50 was under 5 nM and the maximal degradation (Dmax) is over 70%. For `Cn1cnnc1CC1(c2cccc(N3Cc4c(cc(CN5CCC[C@H](CN6CCN(C[C@H]7CC[C@@H](OC8CCN(c9ccc%10c(c9F)CN(C9CCC(=O)NC9=O)C%10=O)CC8)CC7)CC6(C)C)C5)cc4C(F)(F)F)C3=O)c2)CC1` (stereo partly drawn) [Example 264, 3-[4-fluoro-1-oxo-5-(4-{[(1r,4r)-4-[(3,3-dimethyl-4-{[(3S)-1-{[2-(3-{1-[(4-methyl-4H-1,2,4-triazol-3-yl)methyl]cyclopropyl}phenyl)-3-oxo-7-(trifluoromethyl)-2,3-dihydro-1H-isoindol-5-yl]methyl}piperidin-3-yl]methyl}piperazin-1-yl)methyl]cyclohexyl]oxy}piperidin-1-yl)-2,3-dihydro-1H-isoindol-2-yl]piperidine-2,6-dione], in that order: under 5 nM and over 70%. Regarding `COc1c(N2CCC(C(=O)N3CCC4(CC3)CN(c3cc5c(c(C(F)(F)F)c3)CN(c3cccc(C6(Cc7nncn7C)COC6)c3)C5=O)C4)CC2)ccc2c1CN(C1CCC(=O)NC1=O)C2=O` (centres unmarked) [Example 265, 3-[4-methoxy-5-(4-{2-[2-(3-{3-[(4-methyl-4H-1,2,4-triazol-3-yl)methyl]oxetan-3-yl}phenyl)-3-oxo-7-(trifluoromethyl)-2,3-dihydro-1H-isoindol-5-yl]-2,7-diazaspiro[3.5]nonane-7-carbonyl}piperidin-1-yl)-1-oxo-2,3-dihydro-1H-isoindol-2-yl]piperidine-2,6-dione], the DC50 lay in the range of 5 to 50 nM and the Dmax is under 35%. For `CC(C)n1c(=O)n(C2CCC(=O)NC2=O)c2ccc(N3CCC(O[C@H]4CC[C@@H](CN5CCN(C[C@H]6CCCN(Cc7cc(C(F)(F)F)c8cn(-c9cccc(C%10(Cc%11nncn%11C)COC%10)c9)nc8c7)C6)C(C)(C)C5)CC4)CC3)cc21` (stereo partly drawn) [Example 266, 3-[2-oxo-3-(propan-2-yl)-5-(4-{[(1r,4r)-4-[(3,3-dimethyl-4-{[(3S)-1-{[2-(3-{3-[(4-methyl-4H-1,2,4-triazol-3-yl)methyl]oxetan-3-yl}phenyl)-4-(trifluoromethyl)-2H-indazol-6-yl]methyl}piperidin-3-yl]methyl}piperazin-1-yl)methyl]cyclohexyl]oxy}piperidin-1-yl)-2,3-dihydro-1H-1,3-benzodiazol-1-yl]piperidine-2,6-dione] the same measures were under 5 nM and over 70%. For `Cn1cnnc1CC1(c2cccc(-n3cc4c(C(F)(F)F)cc(CN5CCC[C@H](CN6CCN(C[C@H]7CC[C@@H](OC8CCN(c9ccc%10c(c9F)CN(C9CCC(=O)NC9=O)C%10=O)CC8)CC7)CC6(C)C)C5)cc4n3)c2)COC1` (stereo partly drawn) [Example 267, 3-[4-fluoro-1-oxo-5-(4-{[(1r,4r)-4-[(3,3-dimethyl-4-{[(3S)-1-{[2-(3-{3-[(4-methyl-4H-1,2,4-triazol-3-yl)methyl]oxetan-3-yl}phenyl)-4-(trifluoromethyl)-2H-indazol-6-yl]methyl}piperidin-3-yl]methyl}piperazin-1-yl)methyl]cyclohexyl]oxy}piperidin-1-yl)-2,3-dihydro-1H-isoindol-2-yl]piperidine-2,6-dione], in that order: under 5 nM and over 70%. For `CC(C)n1c(=O)n(C2CCC(=O)NC2=O)c2ccc(N3CCC(O[C@H]4CC[C@@H](CN5CCN(C[C@H]6CCCN(Cc7cc(C(F)(F)F)c8cn(-c9cccc(C%10(Cc%11nncn%11C)COC%10)c9)nc8c7)C6)CC5)CC4)CC3)cc21` (stereo partly drawn) [Example 268, 3-[2-oxo-3-(propan-2-yl)-5-(4-{[(1r,4r)-4-[(4-{[(3S)-1-{[2-(3-{3-[(4-methyl-4H-1,2,4-triazol-3-yl)methyl]oxetan-3-yl}phenyl)-4-(trifluoromethyl)-2H-indazol-6-yl]methyl}piperidin-3-yl]methyl}piperazin-1-yl)methyl]cyclohexyl]oxy}piperidin-1-yl)-2,3-dihydro-1H-1,3-benzodiazol-1-yl]piperidine-2,6-dione], in that order: under 5 nM and over 70%. On to `Cc1cc(N2CCC(O[C@H]3CC[C@@H](CN4CCN(C[C@H]5CCCN(Cc6cc7c(c(C(F)(F)F)c6)CN(c6cccc(C8(Cc9nncn9C)COC8)c6)C7=O)C5)C(C)(C)C4)CC3)CC2)c(F)c2c1C(=O)N(C1CCC(=O)NC1=O)C2` (stereo partly drawn) [Example 269, 3-[4-fluoro-7-methyl-1-oxo-5-(4-{[(1r,4r)-4-[(3,3-dimethyl-4-{[(3S)-1-{[2-(3-{3-[(4-methyl-4H-1,2,4-triazol-3-yl)methyl]oxetan-3-yl}phenyl)-3-oxo-7-(trifluoromethyl)-2,3-dihydro-1H-isoindol-5-yl]methyl}piperidin-3-yl]methyl}piperazin-1-yl)methyl]cyclohexyl]oxy}piperidin-1-yl)-2,3-dihydro-1H-isoindol-2-yl]piperidine-2,6-dione], for which the DC50 is under 5 nM and the Dmax was over 70%.

`Cn1cnnc1CC1(c2cccc(N3Cc4c(cc(CN5CCC[C@H](CN6CCN(C[C@H]7CC[C@@H](OC8CCN(c9ccc%10c(c9F)CN(C9CCC(=O)NC9=O)C%10=O)CC8)CC7)CC6(C)C)C5)cc4C(F)(F)F)C3=O)c2)CCC1` (stereo partly drawn) [Example 270, 3-[4-fluoro-1-oxo-5-(4-{[(1r,4r)-4-[(3,3-dimethyl-4-{[(3S)-1-{[2-(3-{1-[(4-methyl-4H-1,2,4-triazol-3-yl)methyl]cyclobutyl}phenyl)-3-oxo-7-(trifluoromethyl)-2,3-dihydro-1H-isoindol-5-yl]methyl}piperidin-3-yl]methyl}piperazin-1-yl)methyl]cyclohexyl]oxy}piperidin-1-yl)-2,3-dihydro-1H-isoindol-2-yl]piperidine-2,6-dione]: the DC50 is under 5 nM and the Dmax is over 70%. For `Cc1cc(N2C[C@@H]3C[C@H]2CN3CC2CCC3(CC2)CN(c2cc4c(c(C(F)(F)F)c2)CN(c2cccc([C@]5(Cc6nncn6C)C[C@@H](C#N)C5)c2)C4=O)C3)c(F)c2c1C(=O)N(C1CCC(=O)NC1=O)C2` (stereo partly drawn) [Example 271, (1r,3r)-3-{3-[6-(7-{[(1S,4S)-5-[2-(2,6-dioxopiperidin-3-yl)-4-fluoro-7-methyl-1-oxo-2,3-dihydro-1H-isoindol-5-yl]-2,5-diazabicyclo[2.2.1]heptan-2-yl]methyl}-2-azaspiro[3.5]nonan-2-yl)-1-oxo-4-(trifluoromethyl)-2,3-dihydro-1H-isoindol-2-yl]phenyl}-3-[(4-methyl-4H-1,2,4-triazol-3-yl)methyl]cyclobutane-1-carbonitrile] the same measures were 5 to 50 nM and 35 to 70%. For `Cc1cc(C2CCN(CC3CCC4(CC3)CN(c3cc5c(c(C(F)(F)F)c3)CN(c3cccc([C@]6(Cc7nncn7C)C[C@@H](C#N)C6)c3)C5=O)C4)CC2)c(F)c2c1C(=O)N(C1CCC(=O)NC1=O)C2` (some centres unmarked) [Example 272, (1r,3r)-3-(3-{6-[7-({4-[2-(2,6-dioxopiperidin-3-yl)-4-fluoro-7-methyl-1-oxo-2,3-dihydro-1H-isoindol-5-yl]piperidin-1-yl}methyl)-2-azaspiro[3.5]nonan-2-yl]-1-oxo-4-(trifluoromethyl)-2,3-dihydro-1H-isoindol-2-yl}phenyl)-3-[(4-methyl-4H-1,2,4-triazol-3-yl)methyl]cyclobutane-1-carbonitrile], in that order: 5 to 50 nM and 35 to 70%. On to `CC(C)n1c(=O)n(C2CCC(=O)NC2=O)c2ccc(N3CCC(CN4CCN(C[C@H]5CCCN(Cc6cc7c(c(C(F)(F)F)c6)CN(c6cccc(C8(Cc9nncn9C)CC(C#N)C8)c6)C7=O)C5)C(C)(C)C4)CC3)cc21` (stereo partly drawn) [Example 273, (1r*,3r*)-3-[3-(6-{[(3S)-3-{[4-({1-[1-(2,6-dioxopiperidin-3-yl)-2-oxo-3-(propan-2-yl)-2,3-dihydro-1H-1,3-benzodiazol-5-yl]piperidin-4-yl}methyl)-2,2-dimethylpiperazin-1-yl]methyl}piperidin-1-yl]methyl}-1-oxo-4-(trifluoromethyl)-2,3-dihydro-1H-isoindol-2-yl)phenyl]-3-[(4-methyl-4H-1,2,4-triazol-3-yl)methyl]cyclobutane-1-carbonitrile], for which the DC50 was under 5 nM. For the compound `Cn1cnnc1C[C@]1(c2cccc(N3Cc4c(cc(CN5CCN(C[C@H]6CC[C@H](OC7CCN(c8cccc9c8n(C)c(=O)n9C8CCC(=O)NC8=O)CC7)CC6)CC5(C)C)cc4C(F)(F)F)C3=O)c2)C[C@H](C#N)C1` (some centres unmarked) [Example 274, (1r,3r)-3-(3-{6-[(2,2-dimethyl-4-{[(1r,4r)-4-({1-[1-(2,6-dioxopiperidin-3-yl)-3-methyl-2-oxo-2,3-dihydro-1H-1,3-benzodiazol-4-yl]piperidin-4-yl}oxy)cyclohexyl]methyl}piperazin-1-yl)methyl]-1-oxo-4-(trifluoromethyl)-2,3-dihydro-1H-isoindol-2-yl}phenyl)-3-[(4-methyl-4H-1,2,4-triazol-3-yl)methyl]cyclobutane-1-carbonitrile], the DC50 is under 5 nM and the maximal degradation (Dmax) was over 70%.
